Data taken from ChEMBL document CHEMBL4020759, “Sulfoximines as ATR inhibitors: Analogs of VE-821” (2017).
Active and inactive are the calls of the source. No cut-off for these calls is given here.

How the values were obtained:
[1] = molecular target: Serine/threonine-protein kinase ATR (Homo sapiens) (UniProt Q13535); test: Inhibition of ATR in human U2OS cells assessed as reduction in etoposide-induced Chk-1 phosphorylation at Ser345 residue at 10 uM preincubated for 1 hr followed by etoposide challenge measured after 20 mins by Western blot analysis; assay type: cell-based
Sequence of Serine/threonine-protein kinase ATR (Homo sapiens) (Q13535 whole entry, looked up): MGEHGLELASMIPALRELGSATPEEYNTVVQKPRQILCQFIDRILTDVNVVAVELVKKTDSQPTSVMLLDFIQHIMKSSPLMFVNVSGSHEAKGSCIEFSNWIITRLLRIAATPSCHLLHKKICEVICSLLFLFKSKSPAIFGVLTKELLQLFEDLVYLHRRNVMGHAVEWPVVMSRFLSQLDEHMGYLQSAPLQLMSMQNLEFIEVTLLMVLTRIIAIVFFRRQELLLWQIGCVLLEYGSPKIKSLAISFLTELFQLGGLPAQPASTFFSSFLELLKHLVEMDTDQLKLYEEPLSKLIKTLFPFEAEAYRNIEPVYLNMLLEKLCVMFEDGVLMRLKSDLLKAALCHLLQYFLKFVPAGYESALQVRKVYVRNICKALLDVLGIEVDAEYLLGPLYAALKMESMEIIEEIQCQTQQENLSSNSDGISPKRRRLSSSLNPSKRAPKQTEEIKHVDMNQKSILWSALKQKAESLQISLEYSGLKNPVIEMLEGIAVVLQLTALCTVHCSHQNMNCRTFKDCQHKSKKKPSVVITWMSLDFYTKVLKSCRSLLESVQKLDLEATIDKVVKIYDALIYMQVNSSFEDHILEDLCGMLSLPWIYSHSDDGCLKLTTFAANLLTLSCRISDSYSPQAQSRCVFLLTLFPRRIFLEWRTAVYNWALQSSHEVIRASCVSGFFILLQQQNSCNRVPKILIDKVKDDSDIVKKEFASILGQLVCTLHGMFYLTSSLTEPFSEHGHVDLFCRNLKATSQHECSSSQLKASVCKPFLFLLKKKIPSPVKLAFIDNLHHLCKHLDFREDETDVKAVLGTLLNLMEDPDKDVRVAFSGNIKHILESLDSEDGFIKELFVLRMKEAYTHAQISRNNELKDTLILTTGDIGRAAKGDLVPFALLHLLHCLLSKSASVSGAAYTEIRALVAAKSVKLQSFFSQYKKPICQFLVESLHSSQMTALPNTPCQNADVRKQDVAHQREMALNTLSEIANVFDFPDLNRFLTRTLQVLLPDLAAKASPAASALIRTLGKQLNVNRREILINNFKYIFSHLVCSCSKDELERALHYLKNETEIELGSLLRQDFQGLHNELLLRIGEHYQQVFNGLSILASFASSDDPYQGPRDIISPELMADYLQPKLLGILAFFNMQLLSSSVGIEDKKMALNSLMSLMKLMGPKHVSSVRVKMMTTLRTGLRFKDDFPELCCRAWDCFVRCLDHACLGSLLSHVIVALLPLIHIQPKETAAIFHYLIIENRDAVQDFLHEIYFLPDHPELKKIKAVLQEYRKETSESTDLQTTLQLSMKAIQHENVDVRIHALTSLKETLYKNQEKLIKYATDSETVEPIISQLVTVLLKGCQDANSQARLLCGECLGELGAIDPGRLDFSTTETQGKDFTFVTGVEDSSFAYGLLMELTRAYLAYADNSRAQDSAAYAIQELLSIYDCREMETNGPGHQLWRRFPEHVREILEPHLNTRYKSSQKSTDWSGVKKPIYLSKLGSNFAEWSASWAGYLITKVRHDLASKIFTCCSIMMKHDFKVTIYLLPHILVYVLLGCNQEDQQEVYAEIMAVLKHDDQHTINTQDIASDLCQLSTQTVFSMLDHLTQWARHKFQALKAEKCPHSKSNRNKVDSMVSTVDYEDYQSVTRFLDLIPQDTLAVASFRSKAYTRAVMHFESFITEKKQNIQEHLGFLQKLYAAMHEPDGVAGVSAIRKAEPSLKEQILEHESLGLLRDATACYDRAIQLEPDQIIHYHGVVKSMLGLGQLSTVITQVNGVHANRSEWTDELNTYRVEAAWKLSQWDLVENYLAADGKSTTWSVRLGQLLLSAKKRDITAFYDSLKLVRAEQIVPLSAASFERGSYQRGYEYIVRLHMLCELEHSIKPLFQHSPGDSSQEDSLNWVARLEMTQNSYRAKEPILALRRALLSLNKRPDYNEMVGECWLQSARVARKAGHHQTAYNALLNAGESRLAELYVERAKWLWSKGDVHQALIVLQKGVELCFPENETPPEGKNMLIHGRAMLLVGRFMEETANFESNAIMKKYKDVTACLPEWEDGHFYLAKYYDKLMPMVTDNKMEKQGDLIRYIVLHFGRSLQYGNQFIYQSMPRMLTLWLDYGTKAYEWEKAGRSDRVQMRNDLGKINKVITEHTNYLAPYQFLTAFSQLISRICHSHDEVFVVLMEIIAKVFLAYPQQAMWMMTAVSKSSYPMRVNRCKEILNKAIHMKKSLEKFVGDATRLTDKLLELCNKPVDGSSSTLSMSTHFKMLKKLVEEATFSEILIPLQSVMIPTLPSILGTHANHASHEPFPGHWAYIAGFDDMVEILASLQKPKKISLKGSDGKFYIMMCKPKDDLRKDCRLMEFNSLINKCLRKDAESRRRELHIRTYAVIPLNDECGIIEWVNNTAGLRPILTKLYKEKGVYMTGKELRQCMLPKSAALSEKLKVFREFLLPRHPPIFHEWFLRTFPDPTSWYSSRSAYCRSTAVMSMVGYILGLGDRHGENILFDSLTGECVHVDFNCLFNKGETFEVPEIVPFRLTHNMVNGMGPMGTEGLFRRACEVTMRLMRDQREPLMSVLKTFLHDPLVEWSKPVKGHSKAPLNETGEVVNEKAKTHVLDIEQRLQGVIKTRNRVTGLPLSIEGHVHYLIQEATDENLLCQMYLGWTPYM

[2] = molecular target: Serine/threonine-protein kinase ATR (Homo sapiens) (UniProt Q13535); test: Inhibition of ATR in human Ramos cells assessed as reduction in […] at 10 uM after 48 hrs by Western blot analysis; assay type: cell-based
HL-60(TB) = test: Growth inhibition of human HL-60(TB) cells assessed as cell growth at 10 uM incubated for 48 hrs by sulforhodamine B assay; assay type: functional; details: HL-60, 48 h, read-out: Activity
K562 = test: Growth inhibition of human K562 cells assessed as cell growth at 10 uM incubated for 48 hrs by sulforhodamine B assay; assay type: functional; details: K562, 48 h, read-out: Activity
MOLT-4 = test: Growth inhibition of human MOLT4 cells assessed as cell growth at 10 uM incubated for 48 hrs by sulforhodamine B assay; assay type: functional; details: MOLT-4, 48 h, read-out: Activity
A549 = test: Growth inhibition of human A549/ATCC cells assessed as cell growth at 10 uM incubated for 48 hrs by sulforhodamine B assay; assay type: functional; details: A549, 48 h, read-out: Activity
HOP-62 = test: Growth inhibition of human HOP62 cells assessed as cell growth at 10 uM incubated for 48 hrs by sulforhodamine B assay; assay type: functional; details: HOP-62, 48 h, read-out: Activity
HOP-92 = test: Growth inhibition of human HOP92 cells assessed as cell growth at 10 uM incubated for 48 hrs by sulforhodamine B assay; assay type: functional; details: HOP-92, 48 h, read-out: Activity
NCI-H23 = test: Growth inhibition of human NCI-H23 cells assessed as cell growth at 10 uM incubated for 48 hrs by sulforhodamine B assay; assay type: functional; details: NCI-H23, 48 h, read-out: Activity
NCI-H460 = test: Growth inhibition of human NCI-H460 cells assessed as cell growth at 10 uM incubated for 48 hrs by sulforhodamine B assay; assay type: functional; details: NCI-H460, 48 h, read-out: Activity
COLO 205 = test: Growth inhibition of human COLO205 cells assessed as cell growth at 10 uM incubated for 48 hrs by sulforhodamine B assay; assay type: functional; details: COLO 205, 48 h, read-out: Activity
HCT-116 = test: Growth inhibition of human HCT116 cells assessed as cell growth at 10 uM incubated for 48 hrs by sulforhodamine B assay; assay type: functional; details: HCT-116, 48 h, read-out: Activity
SF-268 = test: Growth inhibition of human SF268 cells assessed as cell growth at 10 uM incubated for 48 hrs by sulforhodamine B assay; assay type: functional; details: SF-268, 48 h, read-out: Activity
SF-295 = test: Growth inhibition of human SF295 cells assessed as cell growth at 10 uM incubated for 48 hrs by sulforhodamine B assay; assay type: functional; details: SF-295, 48 h, read-out: Activity
SNB-19 = test: Growth inhibition of human SNB19 cells assessed as cell growth at 10 uM incubated for 48 hrs by sulforhodamine B assay; assay type: functional; details: SNB-19, 48 h, read-out: Activity
LOX IMVI = test: Growth inhibition of human LOXIMVI cells assessed as cell growth at 10 uM incubated for 48 hrs by sulforhodamine B assay; assay type: functional; details: read-out: Activity
Malme-3M = test: Growth inhibition of human MALME-3M cells assessed as cell growth at 10 uM incubated for 48 hrs by sulforhodamine B assay; assay type: functional; details: read-out: Activity
MDA-MB-435 = test: Growth inhibition of human MDA-MB-435 cells assessed as cell growth at 10 uM incubated for 48 hrs by sulforhodamine B assay; assay type: functional; details: MDA-MB-435, 48 h, read-out: Activity
SK-MEL-2 = test: Growth inhibition of human SK-MEL-2 cells assessed as cell growth at 10 uM incubated for 48 hrs by sulforhodamine B assay; assay type: functional; details: SK-MEL-2, 48 h, read-out: Activity
SK-MEL-28 = test: Growth inhibition of human SK-MEL-28 cells assessed as cell growth at 10 uM incubated for 48 hrs by sulforhodamine B assay; assay type: functional; details: SK-MEL-28, 48 h, read-out: Activity
OVCAR-4 = test: Growth inhibition of human OVCAR4 cells assessed as cell growth at 10 uM incubated for 48 hrs by sulforhodamine B assay; assay type: functional; details: OVCAR-4, 48 h, read-out: Activity
OVCAR-5 = test: Growth inhibition of human OVCAR5 cells assessed as cell growth at 10 uM incubated for 48 hrs by sulforhodamine B assay; assay type: functional; details: OVCAR-5, 48 h, read-out: Activity
OVCAR-8 = test: Growth inhibition of human OVCAR8 cells assessed as cell growth at 10 uM incubated for 48 hrs by sulforhodamine B assay; assay type: functional; details: OVCAR-8, 48 h, read-out: Activity
SK-OV-3 = test: Growth inhibition of human SKOV3 cells assessed as cell growth at 10 uM incubated for 48 hrs by sulforhodamine B assay; assay type: functional; details: SK-OV-3, 48 h, read-out: Activity
786-0 = test: Growth inhibition of human 786-0 cells assessed as cell growth at 10 uM incubated for 48 hrs by sulforhodamine B assay; assay type: functional; details: 786-0, 48 h, read-out: Activity
A498 = test: Growth inhibition of human A498 cells assessed as cell growth at 10 uM incubated for 48 hrs by sulforhodamine B assay; assay type: functional; details: A498, 48 h, read-out: Activity
ACHN = test: Growth inhibition of human ACHN cells assessed as cell growth at 10 uM incubated for 48 hrs by sulforhodamine B assay; assay type: functional; details: read-out: Activity
SN12C = test: Growth inhibition of human SN12C cells assessed as cell growth at 10 uM incubated for 48 hrs by sulforhodamine B assay; assay type: functional; details: read-out: Activity
TK-10 = test: Growth inhibition of human TK10 cells assessed as cell growth at 10 uM incubated for 48 hrs by sulforhodamine B assay; assay type: functional; details: TK-10, 48 h, read-out: Activity
UO-31 = test: Growth inhibition of human UO31 cells assessed as cell growth at 10 uM incubated for 48 hrs by sulforhodamine B assay; assay type: functional; details: UO-31, 48 h, read-out: Activity
PC-3 = test: Growth inhibition of human PC3 cells assessed as cell growth at 10 uM incubated for 48 hrs by sulforhodamine B assay; assay type: functional; details: PC-3, 48 h, read-out: Activity
MCF7 = test: Growth inhibition of human MCF7 cells assessed as cell growth at 10 uM incubated for 48 hrs by sulforhodamine B assay; assay type: functional; details: MCF7, 48 h, read-out: Activity
MDA-MB-231 = test: Growth inhibition of human MDA-MB-231 cells assessed as cell growth at 10 uM incubated for 48 hrs by sulforhodamine B assay; assay type: functional; details: MDA-MB-231, 48 h, read-out: Activity
T47D = test: Growth inhibition of human T47D cells assessed as cell growth at 10 uM incubated for 48 hrs by sulforhodamine B assay; assay type: functional; details: read-out: Activity
MDA-MB-468 = test: Growth inhibition of human MDA-MB-468 cells assessed as cell growth at 10 uM incubated for 48 hrs by sulforhodamine B assay; assay type: functional; details: MDA-MB-468, 48 h, read-out: Activity

| SMILES | inhibition [1] | inhibition [2] | growth at 10 µM (HL-60(TB)) | growth at 10 µM (K562) | growth at 10 µM (MOLT-4) | growth at 10 µM (A549) | growth at 10 µM (HOP-62) | growth at 10 µM (HOP-92) | growth at 10 µM (NCI-H23) | growth at 10 µM (NCI-H460) | growth at 10 µM (COLO 205) | growth at 10 µM (HCT-116) | growth at 10 µM (SF-268) | growth at 10 µM (SF-295) | growth at 10 µM (SNB-19) | growth at 10 µM (LOX IMVI) | growth at 10 µM (Malme-3M) | growth at 10 µM (MDA-MB-435) | growth at 10 µM (SK-MEL-2) | growth at 10 µM (SK-MEL-28) | also measured |
| --- | --- | --- | --- | --- | --- | --- | --- | --- | --- | --- | --- | --- | --- | --- | --- | --- | --- | --- | --- | --- | --- |
| CS(=O)(=NC#N)c1ccc(-c2cnc(N)c(C(=O)Nc3ccccc3)n2)cc1 (stereo not given) | Active | Active | 108% | 70.8% | 64.7% | 63.1% | 97% | 106% | 81.2% | 83.9% | 88.3% | 86.8% | 87.7% | 99.2% | 105% | 66.5% | 127% | 87.7% | 94% | 111% | growth at 10 µM (OVCAR-4): 97%; growth at 10 µM (OVCAR-5): 163%; growth at 10 µM (OVCAR-8): 96.8%; growth at 10 µM (SK-OV-3): 56.8%; growth at 10 µM (786-0): 45.5%; growth at 10 µM (A498): 76.1%; growth at 10 µM (ACHN): 51.4%; growth at 10 µM (SN12C): 78.8%; growth at 10 µM (TK-10): 97.4%; growth at 10 µM (UO-31): 48.1%; growth at 10 µM (PC-3): 90.2%; growth at 10 µM (MCF7): 45.5%; growth at 10 µM (MDA-MB-231): 102%; growth at 10 µM (T47D): 99%; growth at 10 µM (MDA-MB-468): 96.7% |
| C/S(=N\C#N)c1ccc(-c2cnc(N)c(C(=O)Nc3ccccc3)n2)cc1 (stereo not given) | Active | Active | 79.2% | 62.2% | 74.5% | 85.4% | 110% | 93.4% | 98.2% | 87.4% | 76.9% | 73.1% | 88.4% | 114% | 104% | 77.8% | 80% | 84% | 92.2% | 97.4% | growth at 10 µM (OVCAR-4): 87.3%; growth at 10 µM (OVCAR-5): 120%; growth at 10 µM (OVCAR-8): 102%; growth at 10 µM (SK-OV-3): 68%; growth at 10 µM (786-0): 59.5%; growth at 10 µM (A498): 86.3%; growth at 10 µM (ACHN): 54%; growth at 10 µM (SN12C): 82.4%; growth at 10 µM (TK-10): 93.6%; growth at 10 µM (UO-31): 49.1%; growth at 10 µM (PC-3): 86%; growth at 10 µM (MCF7): 75.7%; growth at 10 µM (MDA-MB-231): 101%; growth at 10 µM (T47D): 82.9%; growth at 10 µM (MDA-MB-468): 84.6% |
